In US11697648B2, “Fused pyrimidine pyridinone compounds as JAK inhibitors” (THERAVANCE BIOPHARMA R&D IP, LLC, priority 2019, dated 2023):

Experiments:
[1] = tested on: Caco-2 cell monolayers; experiment: Caco-2 permeation assay; type: in vitro ADME; settings: 5 μM, A-B direction, with Verapamil (25 μM)
Description: Assay 4: Caco-2 Permeation Assay
The Caco-2 permeation assay was performed to model the ability of test compounds to pass through the intestine and get into the blood stream after oral administration. The rate at which test compounds in solution permeate a cell monolayer designed to mimic the tight junction of human small intestinal monolayers was determined.
CacoReady 24-well transwell plates were obtained from ADMEcell (Alameda, Calif.). The compounds were evaluated at a concentration of 5 μM from 10 mM DMSO stock solutions in duplicate (n=2). The passive permeability of the compounds tested was evaluated using Caco-2 cell monolayers along with Verapamil (25 μM) to inhibit P-gp transport proteins in the apical to basolateral (A-B) direction. The experiment was conducted in a 37° C., 5% CO2 incubator. Caco-2 culture media consisted of standard filtered DMEM, FCS 10%, L-Glutamine 1% and PenStrep 1%. Basal assay plate was prepared by adding 750 μL of transport buffer to A-B wells. A CacoReady™ plate was prepared by removing the Caco-2 media from the apical wells and replacing with fresh transport media (200 μL repeated for a total of 3 washes). Blank media (200 μL) was then replaced with diluted compound for A-B wells. To begin the incubation, the basal plate was removed from the incubator and the apical section was added on top of it. Samples (40 μL) were collected from the apical and basal compartments for time zero (t0). Samples were collected again after 120 minutes (t120) from the apical and basal compartments. All samples were diluted and prepared for bioanalysis by LC-MS/MS. The permeation coefficient (Kp, mean A to B+ Verapamil Papparent) in cm/sec was calculated as dQ (flux)/(dt×Area×concentration).
In this assay, a Kp value less than about 5×10^−6 cm/sec is considered favorable to minimize systemic exposure and target the colon. A Kp value less than about 10×10^−6 cm/sec may also be sufficient to minimize systemic exposure and target the colon.

[2] = target: JAK3 (Homo sapiens (Human), UniProt P52333); experiment: Biochemical JAK3 kinase assay (LanthaScreen); settings: for JAK3 (pKi)-JAK1 (pKi): selectivity JAK3 over JAK1, difference of pKi
How it was run: (§1)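 GST-JAK + GFP-STAT1 peptide, HEPES pH 7.5/MgCl2/EGTA/Brij-35 buffer; cpd preincubation 1 h RT; ATP start, 1 h RT; stop with 10 mM EDTA + 2 nM Tb-anti-pSTAT1; TR-FRET 520/495. 4-parameter IC50 → pKi (Cheng-Prusoff).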

[3] = target: JAK1 (Homo sapiens (Human), UniProt P23458); experiment: Biochemical JAK1 kinase assay (LanthaScreen)
How it was run: as §1

[4] = target: Tyk2 (Homo sapiens (Human), UniProt P29597); experiment: Biochemical Tyk2 kinase assay (LanthaScreen)
How it was run: as §1

[5] = tested on: IL-2 stimulated STAT5 phosphorylation in Tall-1 human T cell line (JAK3); experiment: Cellular JAK3 potency assay: inhibition of IL-2 stimulated pSTAT5 in Tall-1 T cells; type: cell-based; settings: IL-2 stimulated pSTAT5, Tall-1 T cells
How it was run: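 AlphaLISA SureFire Ultra measures STAT5 Tyr694/699 phosphorylation in lysed Tall-1 human T cells. Cells were exposed to compound for 1 h at 37 °C before a 30 min IL-2 challenge (300 ng/ml final). Values are pIC50 means with standard deviation from signal-versus-concentration curves.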

[6] = target: JAK2 (Homo sapiens (Human), UniProt O60674); experiment: Biochemical JAK2 kinase assay (LanthaScreen)
How it was run: as §1

Chain of JAK1 (P23458 whole entry): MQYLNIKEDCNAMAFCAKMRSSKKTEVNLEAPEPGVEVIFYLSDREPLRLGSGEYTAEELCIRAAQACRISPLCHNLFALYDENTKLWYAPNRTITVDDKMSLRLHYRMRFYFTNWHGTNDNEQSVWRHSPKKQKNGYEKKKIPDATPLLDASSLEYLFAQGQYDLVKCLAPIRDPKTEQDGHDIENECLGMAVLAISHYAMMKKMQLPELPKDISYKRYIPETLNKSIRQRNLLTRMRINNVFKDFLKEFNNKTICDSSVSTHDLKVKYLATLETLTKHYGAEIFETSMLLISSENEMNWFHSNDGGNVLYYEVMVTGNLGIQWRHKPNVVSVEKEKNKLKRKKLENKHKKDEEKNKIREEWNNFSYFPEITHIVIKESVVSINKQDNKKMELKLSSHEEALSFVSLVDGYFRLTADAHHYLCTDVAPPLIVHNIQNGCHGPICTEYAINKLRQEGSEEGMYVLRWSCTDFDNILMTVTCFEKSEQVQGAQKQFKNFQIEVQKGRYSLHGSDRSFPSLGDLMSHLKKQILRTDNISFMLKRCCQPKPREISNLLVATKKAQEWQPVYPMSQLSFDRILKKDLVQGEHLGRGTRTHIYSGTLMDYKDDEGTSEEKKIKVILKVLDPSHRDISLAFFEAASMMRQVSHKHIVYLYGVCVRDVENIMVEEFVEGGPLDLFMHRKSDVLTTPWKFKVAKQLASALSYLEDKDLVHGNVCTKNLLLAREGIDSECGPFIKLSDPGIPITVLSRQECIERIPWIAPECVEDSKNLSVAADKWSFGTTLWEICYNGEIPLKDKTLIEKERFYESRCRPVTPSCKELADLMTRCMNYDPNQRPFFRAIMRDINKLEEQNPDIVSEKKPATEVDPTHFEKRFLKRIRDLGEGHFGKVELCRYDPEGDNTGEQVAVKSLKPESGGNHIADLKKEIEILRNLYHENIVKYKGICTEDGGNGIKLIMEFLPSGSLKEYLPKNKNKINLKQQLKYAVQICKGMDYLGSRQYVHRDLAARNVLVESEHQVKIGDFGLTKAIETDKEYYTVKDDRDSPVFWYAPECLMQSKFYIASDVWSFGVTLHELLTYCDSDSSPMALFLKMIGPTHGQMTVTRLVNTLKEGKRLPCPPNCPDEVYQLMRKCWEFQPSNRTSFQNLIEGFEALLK
Chain of JAK2 (O60674 whole entry): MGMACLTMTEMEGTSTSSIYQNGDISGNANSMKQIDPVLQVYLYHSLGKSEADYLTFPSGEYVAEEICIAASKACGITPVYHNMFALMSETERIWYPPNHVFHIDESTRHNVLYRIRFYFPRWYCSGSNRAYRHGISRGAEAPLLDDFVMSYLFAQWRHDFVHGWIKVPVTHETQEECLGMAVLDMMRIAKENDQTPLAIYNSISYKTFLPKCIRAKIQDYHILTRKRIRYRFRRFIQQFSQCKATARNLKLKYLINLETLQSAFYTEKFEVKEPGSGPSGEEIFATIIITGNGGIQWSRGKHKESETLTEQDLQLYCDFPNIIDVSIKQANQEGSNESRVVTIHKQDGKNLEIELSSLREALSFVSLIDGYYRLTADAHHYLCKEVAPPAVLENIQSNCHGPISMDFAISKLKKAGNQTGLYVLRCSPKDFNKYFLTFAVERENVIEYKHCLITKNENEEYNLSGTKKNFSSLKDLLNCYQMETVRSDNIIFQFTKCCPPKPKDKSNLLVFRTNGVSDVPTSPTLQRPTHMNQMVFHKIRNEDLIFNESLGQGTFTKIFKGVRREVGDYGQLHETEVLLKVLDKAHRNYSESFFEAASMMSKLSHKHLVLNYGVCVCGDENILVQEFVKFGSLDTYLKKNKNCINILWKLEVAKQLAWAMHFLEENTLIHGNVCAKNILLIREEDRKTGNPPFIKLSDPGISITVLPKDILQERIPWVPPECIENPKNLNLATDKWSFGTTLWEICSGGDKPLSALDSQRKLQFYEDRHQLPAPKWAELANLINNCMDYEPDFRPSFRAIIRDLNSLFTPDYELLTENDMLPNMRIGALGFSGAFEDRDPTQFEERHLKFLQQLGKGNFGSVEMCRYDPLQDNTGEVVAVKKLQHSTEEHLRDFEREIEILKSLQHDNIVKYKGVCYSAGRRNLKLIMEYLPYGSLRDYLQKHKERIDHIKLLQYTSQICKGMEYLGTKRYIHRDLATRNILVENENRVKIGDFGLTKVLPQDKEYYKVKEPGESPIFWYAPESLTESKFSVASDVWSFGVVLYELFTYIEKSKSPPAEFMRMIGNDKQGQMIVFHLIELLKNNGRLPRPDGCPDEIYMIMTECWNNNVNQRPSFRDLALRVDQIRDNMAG
Chain of JAK3 (P52333 whole entry): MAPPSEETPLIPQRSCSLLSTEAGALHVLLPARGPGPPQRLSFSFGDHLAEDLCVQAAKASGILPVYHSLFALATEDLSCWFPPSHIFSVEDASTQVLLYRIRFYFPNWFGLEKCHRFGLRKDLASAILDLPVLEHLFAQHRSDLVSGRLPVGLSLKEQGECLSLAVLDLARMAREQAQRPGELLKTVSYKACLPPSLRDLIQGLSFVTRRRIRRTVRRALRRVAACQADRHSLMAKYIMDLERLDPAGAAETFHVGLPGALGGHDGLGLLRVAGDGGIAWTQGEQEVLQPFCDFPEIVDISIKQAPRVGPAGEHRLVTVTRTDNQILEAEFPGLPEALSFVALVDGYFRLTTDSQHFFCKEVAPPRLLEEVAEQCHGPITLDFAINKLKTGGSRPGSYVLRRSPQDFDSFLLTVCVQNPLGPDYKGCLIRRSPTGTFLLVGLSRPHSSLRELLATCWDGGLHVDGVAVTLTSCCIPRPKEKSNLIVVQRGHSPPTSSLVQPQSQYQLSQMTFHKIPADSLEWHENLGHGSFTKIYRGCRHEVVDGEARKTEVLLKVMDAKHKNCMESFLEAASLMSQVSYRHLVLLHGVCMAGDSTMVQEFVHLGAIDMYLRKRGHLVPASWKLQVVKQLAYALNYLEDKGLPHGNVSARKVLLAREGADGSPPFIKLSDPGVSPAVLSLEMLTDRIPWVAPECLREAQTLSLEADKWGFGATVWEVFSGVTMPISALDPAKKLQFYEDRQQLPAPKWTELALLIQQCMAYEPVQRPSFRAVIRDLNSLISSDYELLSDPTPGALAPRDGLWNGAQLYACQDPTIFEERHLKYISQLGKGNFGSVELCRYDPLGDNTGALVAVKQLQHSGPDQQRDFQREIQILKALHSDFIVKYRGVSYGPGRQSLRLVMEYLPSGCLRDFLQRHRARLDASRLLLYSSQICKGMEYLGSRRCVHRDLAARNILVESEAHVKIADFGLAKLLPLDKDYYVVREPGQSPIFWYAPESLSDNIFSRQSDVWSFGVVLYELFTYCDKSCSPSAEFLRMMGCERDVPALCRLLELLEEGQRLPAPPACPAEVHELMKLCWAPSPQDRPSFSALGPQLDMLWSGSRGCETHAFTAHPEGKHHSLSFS
Chain of Tyk2 (P29597 whole entry): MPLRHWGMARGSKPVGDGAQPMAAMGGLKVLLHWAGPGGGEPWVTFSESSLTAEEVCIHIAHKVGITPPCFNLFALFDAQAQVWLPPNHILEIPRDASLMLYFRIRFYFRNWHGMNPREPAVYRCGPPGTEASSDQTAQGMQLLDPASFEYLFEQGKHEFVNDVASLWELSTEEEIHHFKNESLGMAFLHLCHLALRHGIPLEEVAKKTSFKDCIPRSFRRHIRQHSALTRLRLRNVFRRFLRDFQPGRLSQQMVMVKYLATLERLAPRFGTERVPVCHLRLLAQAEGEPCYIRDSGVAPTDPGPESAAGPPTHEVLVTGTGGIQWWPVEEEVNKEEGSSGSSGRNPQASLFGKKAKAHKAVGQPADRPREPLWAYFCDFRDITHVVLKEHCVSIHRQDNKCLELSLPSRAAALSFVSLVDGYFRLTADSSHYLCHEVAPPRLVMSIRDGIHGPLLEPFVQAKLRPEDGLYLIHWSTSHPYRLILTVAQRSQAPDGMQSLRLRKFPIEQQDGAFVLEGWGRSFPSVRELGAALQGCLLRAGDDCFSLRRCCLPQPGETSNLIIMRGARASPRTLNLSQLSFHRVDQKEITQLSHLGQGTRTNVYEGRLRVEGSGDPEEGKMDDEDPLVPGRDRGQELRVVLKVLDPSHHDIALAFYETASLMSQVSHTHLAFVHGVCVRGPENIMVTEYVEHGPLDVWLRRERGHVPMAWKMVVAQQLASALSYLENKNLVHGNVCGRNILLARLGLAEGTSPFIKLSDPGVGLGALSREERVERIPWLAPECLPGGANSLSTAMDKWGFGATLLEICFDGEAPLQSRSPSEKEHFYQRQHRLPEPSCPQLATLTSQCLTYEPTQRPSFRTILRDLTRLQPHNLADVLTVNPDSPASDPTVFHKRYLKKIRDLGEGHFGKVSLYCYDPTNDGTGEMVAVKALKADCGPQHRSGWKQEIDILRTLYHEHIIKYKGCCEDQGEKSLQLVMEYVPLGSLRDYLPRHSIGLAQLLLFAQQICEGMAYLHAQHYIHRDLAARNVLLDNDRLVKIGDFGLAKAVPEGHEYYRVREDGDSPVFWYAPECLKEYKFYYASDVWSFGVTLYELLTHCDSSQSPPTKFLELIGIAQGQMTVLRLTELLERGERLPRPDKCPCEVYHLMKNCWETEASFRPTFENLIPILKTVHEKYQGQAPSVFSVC

Structure (SMILES)	Caco Kp [1]	JAK 3 (pKi) [2]	JAK3 (pKi)-JAK1 (pKi) [2]	JAK 1 (pKi) [3]	Tyk 2 (pKi) [4]	Tall-1 (pIC50) [5]	JAK 2 (pKi) [6]
C=CC(=O)N1CC(CCn2c(=O)ccc3cnc(Nc4ccc(N5CCN(C)CC5)cn4)nc32)C1 [Example 137]	A (A represents a value below 5×10^−6 cm/sec)	B (B represents pKi value between 9 and 10 (Ki between 1 nM and 0.1 nM))	A (A represents a value of 3 or above)	E (E represents a pKi value of 7 or below (Ki of 100 nM or above))	E (E represents a pKi value of 7 or below (Ki of 100 nM or above))	B (B represents a pC50 value between 6.7 (included) and 7.5 (IC50 between 200 nM and 32 nM))	E (E represents a pKi value of 7 or below (Ki of 100 nM or above))
C=CC(=O)N1CC(CCn2c(=O)ccc3cnc(Nc4ccc(CN5CCSCC5)cc4)nc32)C1 [Example 86]	C (C represents a value between 10×10^−6 and 30×10^−6 cm/sec)	B (B represents pKi value between 9 and 10 (Ki between 1 nM and 0.1 nM))	A (A represents a value of 3 or above)	E (E represents a pKi value of 7 or below (Ki of 100 nM or above))	E (E represents a pKi value of 7 or below (Ki of 100 nM or above))	B (B represents a pC50 value between 6.7 (included) and 7.5 (IC50 between 200 nM and 32 nM))	E (E represents a pKi value of 7 or below (Ki of 100 nM or above))
C=CC(=O)N1CCN(CCn2c(=O)ccc3cnc(Nc4cnn(C(C)(C)COC)c4)nc32)[C@@H](CC)C1 [Example 203]	C (C represents a value between 10×10^−6 and 30×10^−6 cm/sec)	B (B represents pKi value between 9 and 10 (Ki between 1 nM and 0.1 nM))	A (A represents a value of 3 or above)	E (E represents a pKi value of 7 or below (Ki of 100 nM or above))	E (E represents a pKi value of 7 or below (Ki of 100 nM or above))	B (B represents a pC50 value between 6.7 (included) and 7.5 (IC50 between 200 nM and 32 nM))	E (E represents a pKi value of 7 or below (Ki of 100 nM or above))
C=CC(=O)N1CCN(CCn2c(=O)ccc3cnc(Nc4cnn(C)c4)nc32)[C@@H](C)C1 [Example 30]	A (A represents a value below 5×10^−6 cm/sec)	A (A represents a pKi value≥10 (Ki≤0.1 nM))	A (A represents a value of 3 or above)	E (E represents a pKi value of 7 or below (Ki of 100 nM or above))	E (E represents a pKi value of 7 or below (Ki of 100 nM or above))	B (B represents a pC50 value between 6.7 (included) and 7.5 (IC50 between 200 nM and 32 nM))	E (E represents a pKi value of 7 or below (Ki of 100 nM or above))
C=CC(=O)N1CC(CCn2c(=O)ccc3cnc(Nc4ccc(N5CCN(C(C)=O)C(C)(C)C5)cc4)nc32)C1 [Example 179]	C (C represents a value between 10×10^−6 and 30×10^−6 cm/sec)	A (A represents a pKi value≥10 (Ki≤0.1 nM))	A (A represents a value of 3 or above)	E (E represents a pKi value of 7 or below (Ki of 100 nM or above))	E (E represents a pKi value of 7 or below (Ki of 100 nM or above))	B (B represents a pC50 value between 6.7 (included) and 7.5 (IC50 between 200 nM and 32 nM))	E (E represents a pKi value of 7 or below (Ki of 100 nM or above))
C=CC(=O)N1CC(CCn2c(=O)ccc3cnc(Nc4ccc(-n5ccnn5)cc4)nc32)C1 [Example 67]	B (B represents a value between 5×10^−6 and 10×10^−6 cm/sec)	B (B represents pKi value between 9 and 10 (Ki between 1 nM and 0.1 nM))	A (A represents a value of 3 or above)	E (E represents a pKi value of 7 or below (Ki of 100 nM or above))	E (E represents a pKi value of 7 or below (Ki of 100 nM or above))	B (B represents a pC50 value between 6.7 (included) and 7.5 (IC50 between 200 nM and 32 nM))	E (E represents a pKi value of 7 or below (Ki of 100 nM or above))
C=CC(=O)N1CC(CCn2c(=O)ccc3cnc(Nc4ccc(N5CCN(C(=O)OC(C)C)CC5)cc4)nc32)C1 [Example 100]	A (A represents a value below 5×10^−6 cm/sec)	A (A represents a pKi value≥10 (Ki≤0.1 nM))	A (A represents a value of 3 or above)	E (E represents a pKi value of 7 or below (Ki of 100 nM or above))	E (E represents a pKi value of 7 or below (Ki of 100 nM or above))	A (A represents a pIC50 value≥7.5 (IC50≤32 nM))	E (E represents a pKi value of 7 or below (Ki of 100 nM or above))
C=CC(=O)N1CC(CCn2c(=O)ccc3cnc(Nc4ccccc4)nc32)C1 [Example 18]	C (C represents a value between 10×10^−6 and 30×10^−6 cm/sec)	A (A represents a pKi value≥10 (Ki≤0.1 nM))	A (A represents a value of 3 or above)	E (E represents a pKi value of 7 or below (Ki of 100 nM or above))	E (E represents a pKi value of 7 or below (Ki of 100 nM or above))	B (B represents a pC50 value between 6.7 (included) and 7.5 (IC50 between 200 nM and 32 nM))	E (E represents a pKi value of 7 or below (Ki of 100 nM or above))
C=CC(=O)N1CC(CCn2c(=O)ccc3cnc(Nc4ccc(N5CCC(C)CC5)cc4)nc32)C1 [Example 142]	C (C represents a value between 10×10^−6 and 30×10^−6 cm/sec)	A (A represents a pKi value≥10 (Ki≤0.1 nM))	A (A represents a value of 3 or above)	E (E represents a pKi value of 7 or below (Ki of 100 nM or above))	E (E represents a pKi value of 7 or below (Ki of 100 nM or above))	B (B represents a pC50 value between 6.7 (included) and 7.5 (IC50 between 200 nM and 32 nM))	E (E represents a pKi value of 7 or below (Ki of 100 nM or above))
C=CC(=O)N1CCN(CCn2c(=O)ccc3cnc(Nc4ccc(N5CCN(C(=O)OC)CC5)cc4)nc32)[C@@H](C)C1 [Example 172]	C (C represents a value between 10×10^−6 and 30×10^−6 cm/sec)	B (B represents pKi value between 9 and 10 (Ki between 1 nM and 0.1 nM))	A (A represents a value of 3 or above)	E (E represents a pKi value of 7 or below (Ki of 100 nM or above))	E (E represents a pKi value of 7 or below (Ki of 100 nM or above))	A (A represents a pIC50 value≥7.5 (IC50≤32 nM))	E (E represents a pKi value of 7 or below (Ki of 100 nM or above))
C=CC(=O)N1CC(CCn2c(=O)ccc3cnc(Nc4ccc(N(C)C)cc4)nc32)C1 [Example 91]	D (D represents a value over 30×10^−6 cm/sec)	A (A represents a pKi value≥10 (Ki≤0.1 nM))	A (A represents a value of 3 or above)	E (E represents a pKi value of 7 or below (Ki of 100 nM or above))	E (E represents a pKi value of 7 or below (Ki of 100 nM or above))	B (B represents a pC50 value between 6.7 (included) and 7.5 (IC50 between 200 nM and 32 nM))	E (E represents a pKi value of 7 or below (Ki of 100 nM or above))
C=CC(=O)N1CC(CCn2c(=O)ccc3cnc(Nc4cccc(OC)c4)nc32)C1 [Example 19]	C (C represents a value between 10×10^−6 and 30×10^−6 cm/sec)	B (B represents pKi value between 9 and 10 (Ki between 1 nM and 0.1 nM))	A (A represents a value of 3 or above)	E (E represents a pKi value of 7 or below (Ki of 100 nM or above))	E (E represents a pKi value of 7 or below (Ki of 100 nM or above))	C (C represents a pIC50 value between 6 and 6.7 (IC50 between 1 μM and 200 nM))	E (E represents a pKi value of 7 or below (Ki of 100 nM or above))
